{
  "source": "patent US10011814B2",
  "about": "“Salt formulations for the fermentation of marine microorganisms” (Triphase Research and Development I Corp., priority 2006, dated 2018)",
  "system": "Salinispora tropica NPS021184",
  "assay": "Production of Salinosporamide A and analogs in shake flask or tube culture; titers by HPLC of EtOAc extract",
  "details": "for % Increase (+) or % decrease (−) of maximum titer: Ex.1 Table 1; for % Increase (+) or % decrease (−) of max titer: Ex.1 Table 2; for % increase/decrease of titer: Ex.2 Table 3; for % Increase (+) or % decrease (−) of average max titer: Ex.2 Table 4",
  "description": "Seed cultures were prepared by inoculating frozen stock of Salinispora tropica NPS021184 into seed medium.\nThe first seed cultures (either 10 mL medium in a 50-mL tube or 100 mL medium in a 500-mL Erlenmeyer flask) were incubated for 3 to 4 days before inoculating into the second seed media with the same composition as the first seed cultures. The second seed cultures (100 mL medium in a 500-mL Erlenmeyer flask) were incubated for two days before inoculating into the production medium (100 mL medium in a 500-mL Erlenmeyer flask).\nThe chemically defined salt formulation included: […]\n3.5 mL of the fermentation culture was mixed with equal volume of EtOAc in an extraction tube to extract the various metabolites from the production culture. The mixture was shaken on a shaker for one hr. An aliquot of the extract (1 mL) was removed and dried under a stream of nitrogen. The dried extract was stored at −20° C. freezer before HPLC analysis. The dried extract was resuspended in 320 μL DMSO and injected into HPLC using the 00TF14 method for analysis.\nThe production of Salinosporamide A, NPI-0047 and NPI-2065 was monitored by Agilent HP1100 HPLC using an ACE C-18 reversed-phase column (4.6×150 mm), and solvent system consisting of water (0.01% TFA) as solvent A and acetonitrile (0.01% TFA) as solvent B. The elution was started at 100% solvent A for 1 min, 100% solvent A to 35% solvent A gradient in 7 min, held at 35% solvent A for 11 min, 35% solvent A to 100% solvent B in 8 min and held at 100% solvent B for 9 min at a flow rate of 1.5 mL/min with the detector wavelength set at 210 nm and column temperature 35° C.\nThe first seed cultures (either 10 mL medium in a 50-mL tube or 100 ml medium in a 500-ml Erlenmeyer flask) were incubated for 3 to 4 days before inoculating into the second seed media with the same composition as the first seed cultures. The second seed cultures (100 mL medium in a 500-mL Erlenmeyer flask) were incubated for two days before inoculating into the production medium (100 mL medium in a 500-mL Erlenmeyer flask).\nThe first seed cultures (either 10 mL medium in a 50-ml tube or 100 mL medium in a 500-mL Erlenmeyer flask) were incubated for 3 to 4 days before inoculating into the second seed media with the same composition as the first seed cultures. The second seed cultures (100 mL medium in a 500-mL Erlenmeyer flask) were incubated for two days before inoculating into production medium (100 mL medium in a 500-mL Erlenmeyer flask).\n3.5 mL of the fermentation culture was mixed with equal volume of EtOAc in an extraction tube to extract the various metabolites from the production culture. The mixture was shaken for 1 hr. An aliquot of the extract (1 mL) was removed and dried under a stream of nitrogen. The dried extract was stored at −20° C. freezer before HPLC analysis. The dried extract was resuspended in […] DMSO and injected into HPLC using the TFS7 method for analysis.\nThe production of Salinosporamide A, NPI-0047 and NPI-2065 was monitored by Agilent HP1100 HPLC using an ACE C-18 reversed-phase column (4.6×150 mm), and isocratic solvent system consisting of 67% water (0.01% TFA) and 33% acetonitrile (0.01% TFA). The flow rate was 1.5 mL/min for 15 min with the detector wavelength set at 210 nm and column temperature 35° C.\n3.5 mL of the fermentation culture was mixed with equal volume of EtOAc in an extraction tube to extract the various metabolites from the production culture. The mixture was shaken on the shaker for 1 hr. An aliquot of the extract (1 mL) was removed and dried under a stream of nitrogen. The dried extract was stored at −20° C. freezer before HPLC analysis. The dried extract was resuspended in 320 μL DMSO and injected into HPLC using the TFS7 method for analysis. […]",
  "data": [
    {"smiles": "C[C@@]12OC(=O)[C@]1([C@@H](O)[C@@H]1C=CCCC1)NC(=O)[C@@H]2CCCl", "note": "[Salinosporamide A]", "values": [
      {"measurement": "% Increase (+) or % decrease (−) of maximum titer", "setting": "104 μg/L CoCl2·6H2O in production medium vs no addition", "value": 1.5, "unit": "%"},
      {"measurement": "% Increase (+) or % decrease (−) of maximum titer", "setting": "1.04 mg/L CoCl2·6H2O in production medium vs no addition", "value": 2.2, "unit": "%"},
      {"measurement": "% Increase (+) or % decrease (−) of maximum titer", "setting": "10.4 mg/L CoCl2·6H2O in production medium vs no addition", "value": "−1.4", "unit": "%"},
      {"measurement": "% Increase (+) or % decrease (−) of max titer", "setting": "2.6 μg/L CoCl2·6H2O in production medium vs control", "value": "+1.1%"},
      {"measurement": "% Increase (+) or % decrease (−) of max titer", "setting": "5.2 μg/L CoCl2·6H2O in production medium vs control", "value": "−8.9", "unit": "%"},
      {"measurement": "% Increase (+) or % decrease (−) of max titer", "setting": "6.5 μg/L CoCl2·6H2O in production medium vs control", "value": "+1.2%"},
      {"measurement": "% Increase (+) or % decrease (−) of max titer", "setting": "13 μg/L CoCl2·6H2O in production medium vs control", "value": "−0.3", "unit": "%"},
      {"measurement": "% Increase (+) or % decrease (−) of max titer", "setting": "26 μg/L CoCl2·6H2O in production medium vs control", "value": "−4.0", "unit": "%"},
      {"measurement": "% Increase (+) or % decrease (−) of max titer", "setting": "52 μg/L CoCl2·6H2O in production medium vs control", "value": "−4.5", "unit": "%"},
      {"measurement": "% Increase (+) or % decrease (−) of max titer", "setting": "104 μg/L CoCl2·6H2O in production medium vs control", "value": "−3.0", "unit": "%"},
      {"measurement": "% Increase (+) or % decrease (−) of max titer", "setting": "208 μg/L CoCl2·6H2O in production medium vs control", "value": "+0.2%"},
      {"measurement": "% Increase (+) or % decrease (−) of max titer", "setting": "416 μg/L CoCl2·6H2O in production medium vs control", "value": "−8.5", "unit": "%"},
      {"measurement": "maximum production as % of the high sodium medium", "setting": "Ex.11, low sodium medium (9.3 mM sodium, SHY.KCD) vs high sodium medium (413 mM sodium, SHY.B4C)", "value": "about 75%"},
      {"measurement": "% increase/decrease of titer", "setting": "seed CoCl2·6H2O 0 μg/L (reference)", "value": 0.0, "unit": "%"},
      {"measurement": "% increase/decrease of titer", "setting": "seed CoCl2·6H2O 2.6 μg/L vs 0 μg/L", "value": 1.7, "unit": "%"},
      {"measurement": "% increase/decrease of titer", "setting": "seed CoCl2·6H2O 5.2 μg/L vs 0 μg/L", "value": 4.7, "unit": "%"},
      {"measurement": "% increase/decrease of titer", "setting": "seed CoCl2·6H2O 13 μg/L vs 0 μg/L", "value": 2.5, "unit": "%"},
      {"measurement": "% increase/decrease of titer", "setting": "seed CoCl2·6H2O 26 μg/L vs 0 μg/L", "value": 20.3, "unit": "%"},
      {"measurement": "% increase/decrease of titer", "setting": "seed CoCl2·6H2O 52 μg/L vs 0 μg/L", "value": 10.7, "unit": "%"},
      {"measurement": "% increase/decrease of titer", "setting": "seed CoCl2·6H2O 104 μg/L vs 0 μg/L", "value": 15.9, "unit": "%"},
      {"measurement": "% increase/decrease of titer", "setting": "seed CoCl2·6H2O 208 μg/L vs 0 μg/L", "value": 20.8, "unit": "%"},
      {"measurement": "% increase/decrease of titer", "setting": "seed CoCl2·6H2O 416 μg/L vs 0 μg/L", "value": 9.2, "unit": "%"},
      {"measurement": "% Increase (+) or % decrease (−) of average max titer", "setting": "CoCl2·6H2O seed 0 / production 52 μg/L vs no cobalt", "value": "+10.1%"},
      {"measurement": "% Increase (+) or % decrease (−) of average max titer", "setting": "CoCl2·6H2O seed 208 μg/L / production 52 μg/L vs no cobalt", "value": 33.9, "unit": "%"},
      {"measurement": "% Increase (+) or % decrease (−) of average max titer", "setting": "CoCl2·6H2O seed 208 μg/L / production 52 μg/L vs no cobalt, listed as SALINOSPORAMIDE A", "value": "+33.9%"},
      {"measurement": "concentration as % of the saline fermentation condition", "setting": "Ex.23, low chloride medium (LoCl.PD) vs saline medium", "value": "about 35%"},
      {"measurement": "increase of production", "setting": "Ex.2, cobalt in seed and production media vs cobalt in production medium only", "value": 21.6, "unit": "%"}
    ]}
  ]
}
